Structures are written as SMILES. “Also recorded” adds a separate entry of the source.

For this experiment, the system named is pentylenetetrazol (PTZ)-induced ictal brain activity. In words: Modulation of pentylenetetrazol (PTZ)-induced seizures, BOLD fMRI in rats. Type of experiment: in vivo. Particulars: 3 mg/kg, positive control; anesthetized male Wistar rats. The protocol:
Functional MRI (fMRI) was performed using a high-field preclinical MRI system in anesthetized male Wistar rats in order to determine the modulation of pentylenetetrazol (PTZ)-induced ictal brain activity by chronic treatment with test compound (TC). Animals treated with vehicle and 3 mg/kg Alprazolam served as controls. A schematic of the study design can be seen in FIG. 6. […] Various physiological parameters were also measured throughout the experiment including body weight, CO2 levels, blood pH, and heart rate.

Regarding `Cc1nnc2n1-c1ccc(Cl)cc1C(c1ccccc1)=NC2` [Alprazolam], the “PTZ-induced ictal brain activity (BOLD fMRI area under the curve) vs vehicle” value was “effectively cancelled PTZ-induced brain activity; also recorded: Vehicle vs. Alprazolam in all”.
